Read-outs that look alike come from different tables or passages of the source.
How the values were obtained:
HCC2279 cells [1] = assay: Western blot of apoptotic signaling in NSCLC cells (PARP, caspase 3 cleavage); format: cell-based, human; conditions: 0.5 μM gefitinib, […] ABT-737, 24 h, FIG. 25E
Procedure: FIG. 25E. Western blot showing levels of phospho-EGFR (p-EGFR), PAR P, and caspase 3 cleavage in cells treated for 24 h with 0.5 μM gefitinib, 2.5 μM ABT-737, or both.
Gefitinib and ABT-737 were resuspended in DMSO and kept at −20° C.
Western blotting was performed using antibodies against human BIM, CASPASE 3, cleaved CASPASE 3, PARP, phospho-EGFR (Y1068) (all from Cell Signaling Technology), and β-actin (Sigma).

[2] = test system: K562-BIM^intron+/− and K562-BIM^intron−/− cells; assay: Western blot of genome-edited K562 clones (BIMEL, cleaved caspase 3, PARP); format: cell-based, human; conditions: polymorphism-containing K562 cells; FIG. 16H
Procedure: Western blots were probed with antibody to BIMEL, cleaved caspase 3, PAR P, CrkL, and β-actin. […] Detection was performed with HRP-conjugated secondary antibodies that are specific to rabbit (Sigma) or mouse IgG (Santa Cruz). The membrane was visualized using the Western Lightning chemiluminescence reagent (PerkinElmer). […] In a 6-well plate, 1×10^6 cells were seeded into each well at a density of 2×10^5 cells/ml. After incubation with the appropriate drug for 48 hours, the cells were harvested for western analysis (FIG. 16).

HCC2279 cells [3] = assay: Trypan blue viability assay in NSCLC cells; format: cell-based, human
Procedure: FIG. 25F. Cell viability of PC9 and HCC2279 treated for 48 h with 0.5 μM gefitinib, 2.5 μM ABT-737, or both. Cell viability was determined by trypan blue exclusion, and plotted as a percentage of the no-drug control. (mean+/−standard error of the mean, *p=0.00004 with respect to gefitinib- and ABT-737-treated PC9 cells).
PC9 or HCC2279 cells were seeded in a 24-well plate at 5×10^5 or […] cells per wells in triplicate, and treated with DMSO (no drug), 0.5 μM gefitinib, ABT-737 or combination of gefitinib and ABT-737. Trypan blue staining was performed to assess the number of viable cells 48 hours post treatment.

CML patients = conditions: cited from earlier work
KCL22 cells [4] = assay: Growth curve of CML cell lines cultured with imatinib (FIG. 5F); conditions: KCL22 cells with deletion, 1 μM imatinib
Excerpt: CML lines were obtained from ATCC (MEG-01 and KU812), JCRB (NCO2) and DSMZ (KCL22, K562, KYO1, JK1, BV173 and NALM1).

KCL22 cells [5] = conditions: FIG. 15H and Table H13
Procedure: Apoptosis was measured using the Annexin V-FITC/7-AAD kit (Beckman Coulter) according to the manufacturer's instructions. Briefly, treated and untreated cells were Annexin V-FITC- and 7-AAD-stained in 1× binding buffer for 15 min at room temperature and then analyzed by flow cytometry.

Structure (SMILES): CN(C)CC[C@H](CSc1ccccc1)Nc1ccc(S(=O)(=O)NC(=O)c2ccc(N3CCN(Cc4ccccc4-c4ccc(Cl)cc4)CC3)cc2)cc1[N+](=O)[O-] [ABT-737]
- TKI-induced apoptotic signaling on addition of ABT-737 (HCC2279 cells [1]): enhanced
- ability of imatinib to activate apoptosis on addition of ABT-737 [2]: enhanced
- TKI-induced cell death on addition of ABT-737 (HCC2279 cells [3]; HCC2279, 0.5 μM gefitinib, […] ABT-737, 48 h, FIG. 25F): enhanced

Structure (SMILES): COc1cc2ncnc(Nc3ccc(F)c(Cl)c3)c2cc1OCCCN1CCOCC1 [gefitinib]
- sensitivity of HCC2279 to gefitinib (HCC2279 cells [3]; HCC2279, NSCLC cell line carrying the BIM deletion polymorphism, FIG. 25): intrinsically resistant

Structure (SMILES): Cc1ccc(NC(=O)c2ccc(CN3CCN(C)CC3)cc2)cc1Nc1nccc(-c2cccnc2)n1 [imatinib]
- rate of incomplete cytogenetic responses (CML patients; East-Asian countries): ~50%
- rate of incomplete cytogenetic responses (CML patients; Europe and North America): 26%
- sensitivity of KCL22 cells (growth curve) (KCL22 cells [4]): resistant
- sensitivity of KCL22 cells to imatinib (KCL22 cells [5]): resistant
